Experimental data reported in patent US7157466B2, “Quinazoline ditosylate salt compounds” (SmithKline Beecham (Cork) Limited, priority 2000, dated 2007).
Where two headings read alike, the source gives them in different places.

Experiments:
[1] = tested on: gastric tumor (N87) cell line; experiment: Methylene blue growth inhibition assay, N87; type: cell-based; conditions: Homo sapiens, 72 h, read-out: N87 IC50 uM Cell
Description: Human breast (BT474), head and neck (HN5) and gastric tumor (N87) cell lines and human foreskin Fibroblasts (HFF) were cultured in low glucose DMEM (Life Technologies 12320-032) containing 10% fetal bovine serum (FBS) at 37° C. in a humidified 10% CO2, 90% air incubator. The SV40 transformed human mammary epithelial cell line HB4a was transfected with either human H-ras cDNA (HB4a r4.2) or the human c-erbB2 cDNA (HB4a c5.2). The HB4a clones were cultured in RPMI containing 10% FBS, insulin (5 μg/ml), hydrocortisone (5 μg/ml), supplemented with the selection agent hygromycin B (50 μg/ml). Cells were harvested using trypsin/EDTA, counted using a haemocytometer, and plated in […] of the appropriate media, at the following densities, in a 96-well tissue culture plate (Falcon 3075): BT474 10,000 cells/well, HN5 3,000 cells/well, N87 10,000 cells/well, HB4a c5.2 3,000 cells/well, HB4a r4.2 3,000 cells/well, HFF 2500 cells/well. […] Medium containing 0.6% DMSO was added to control wells. Compounds diluted in DMEM were added to all cell lines, including the HB4a r4.2 and HB4a c5.2 cell lines. The final concentration of DMSO in all wells was 0.3%. Cells were incubated at 37° C., 10% CO2 for 3 days. Medium was removed by aspiration. […] Optical density at 620 nm was measured on a microplate reader. Percent inhibition of cell growth was calculated relative to vehicle treated control wells. […]

[2] = tested on: head and neck (HN5) cell line; experiment: Methylene blue growth inhibition assay, HN5; type: cell-based; conditions: Homo sapiens, read-out: HN5 IC50 uM Cell
Description: Human breast (BT474), head and neck (HN5) and gastric tumor (N87) cell lines and human foreskin Fibroblasts (HFF) were cultured in low glucose DMEM (Life Technologies 12320-032) containing 10% fetal bovine serum (FBS) at 37° C. in a humidified 10% CO2, 90% air incubator. The SV40 transformed human mammary epithelial cell line HB4a was transfected with either human H-ras cDNA (HB4a r4.2) or the human c-erbB2 cDNA (HB4a c5.2). The HB4a clones were cultured in RPMI containing 10% FBS, insulin (5 μg/ml), hydrocortisone (5 μg/ml), supplemented with the selection agent hygromycin B (50 μg/ml). Cells were harvested using trypsin/EDTA, counted using a haemocytometer, and plated in […] of the appropriate media, at the following densities, in a 96-well tissue culture plate (Falcon 3075): BT474 10,000 cells/well, HN5 3,000 cells/well, N87 10,000 cells/well, HB4a c5.2 3,000 cells/well, HB4a r4.2 3,000 cells/well, HFF 2500 cells/well. The next day, compounds were diluted in DMEM containing […] gentamicin, at twice the final required concentration, from 10 mM stock solutions in DMSO. […] of these dilutions were added to the […] of media currently on the cell plates. Medium containing 0.6% DMSO was added to control wells. Compounds diluted in DMEM were added to all cell lines, including the HB4a r4.2 and HB4a c5.2 cell lines. The final concentration of DMSO in all wells was 0.3%. Cells were incubated at 37° C., 10% CO2 for 3 days. Medium was removed by aspiration. Cell biomass was estimated by staining cells with 100 μl per well methylene blue (Sigma M9140, 0.5% in 50:50 ethanol:water), and incubation at room temperature for at least 30 minutes. Stain was removed, and the plates rinsed under a gentle stream of water, and air-dried. To release stain from the cells 100 μl of solubilization solution was added (1% N-lauroyl sarcosine, Sodium salt, Sigma L5125, in PBS), and plates were shaken gently for about 30 minutes. Optical density at 620 nm was measured on a microplate reader. Percent inhibition of cell growth was calculated relative to vehicle treated control wells. […]

[3] = Slurry equilibration, relative physical stability of anhydrate and monohydrate crystal forms; conditions: 25° C.; for Equilibrium Form: 1:1 anhydrate/monohydrate slurry in MeOH/H2O
[4] = Moisture sorption testing; type: physicochemical; conditions: humidities e.g. 20–75% relative humidity (RH)
Description: Approximately 12 mg of N-{3-Chloro-4-[(3-fluorobenzyl) oxy]phenyl}-6-[5-({[2-(methanesulphonyl)ethyl]amino}methyl)-2-furyl]-4-quinazolinamine ditosylate monohydrate salt prepared according to Example 10 was weighed into a sample pan of a moisture sorption apparatus (model number SGA-100, made by VTI). The sample was dried at 60° C. under a nitrogen stream until the weight loss was less than 0.015% in 5 minutes. The relative humidity (RH) was then increased (adsorption) to 5, 15, 25, 35, 45, 55, 65, 75, 85 and 95%—at each step, equilibrium was defined as a weight change of less than 0.015% in 5 minutes. The relative humidity was then decreased (desorption) to 90, 80, 70, 60, 50, 40, 30, and 20% with the same equilibrium condition. The sorption curve (y-axis: Weight—% change vs. x-axis: % RH) is depicted in FIG. 3(a).
Approximately 15 mg of N-{3-Chloro-4-[(3-fluorobenzyl) oxy]phenyl}-6-[5-({[2-(methanesulphonyl)ethyl]amino}methyl)-2-furyl]-4-quinazolinamine di-HCl salt was weighed into a sample pan of a moisture sorption apparatus (model number SGA-100, made by VTI). The sample was dried at 60° C. under a nitrogen stream until the weight loss was less than 0.015% in 5 minutes. The relative humidity was then increased (adsorption) to 5, 15, 25, 35, 45, 55, 65, 75, 85 and 95%—at each step, equilibrium was defined as a weight change of less than 0.015% in 5 minutes. […]

[5] = 72 h, HN5 cells, 3 days, methylene blue

## CS(=O)(=O)CCNCc1ccc(-c2ccc3ncnc(Nc4ccc(OCc5cccc(F)c5)c(Cl)c4)c3c2)o1 [Example 8, N-{3-Chloro-4-[(3-fluorobenzyl)oxy]phenyl}-6-[5-({[2-(methanesulphonyl)ethyl]amino}methyl)-2-furyl]-4-quinazolinamine ditosylate anhydrate]
[1]
  IC50: < 5 µM
[2]; HN5, 72 h
  IC50: < 5 µM

## CS(=O)(=O)CCNCc1ccc(-c2ccc3ncnc(Nc4ccc(OCc5cccc(F)c5)c(Cl)c4)c3c2)o1 [Example 10, N-{3-Chloro-4-[(3-fluorobenzyl)oxy]phenyl}-6-[5-({[2-(methanesulphonyl)ethyl]amino}methyl)-2-furyl]-4-quinazolinamine ditosylate monohydrate]
[3]; slurry equilibration, remains stable up through 100% RH
  RH at which the monohydrate becomes the thermodynamically stable form: 7–15 % RH

## CS(=O)(=O)CCNCc1ccc(-c2ccc3ncnc(Nc4ccc(OCc5cccc(F)c5)c(Br)c4)c3c2)o1 [Example 12, (4-(3-Fluoro-benzyloxy)-3-bromophenyl)-(6-(5-((2-methanesulphonyl-ethylamino)-methyl)-furan-2-yl)quinazolin-4-yl)-amine Ditosylate]
[2]; [5]
  IC50: < 5 µM

## CS(=O)(=O)CCNCc1nc(-c2ccc3ncnc(Nc4ccc(OCc5cccc(F)c5)c(Cl)c4)c3c2)cs1 [Example 13, (4-(3-Fluoro-benzyloxy)-3-chlorophenyl)-(6-(2-((2-methanesulphonyl-ethylamino)-methyl)-thiazol-4-yl)quinazolin-4-yl)-amine ditosylate]
[2]; [5]
  IC50: < 5 µM

## CS(=O)(=O)CCNCc1ccc(-c2ccc3ncnc(Nc4ccc(OCc5cccc(F)c5)c(Cl)c4)c3c2)o1 [N-{3-Chloro-4-[(3-fluorobenzyl)oxy]phenyl}-6-[5-({[2-(methanesulphonyl)ethyl]amino}methyl)-2-furyl]-4-quinazolinamine ditosylate]
[3]; water volume 0%, RH 0%
  Equilibrium Form: Anhydrate
[3]; water volume 2%, RH 7%
  Equilibrium Form: Anhydrate
[3]; water volume 5%, RH 15%
  Equilibrium Form: Monohydrate
[3]; water volume 10%, RH 26%
  Equilibrium Form: Monohydrate
[3]; water volume 20%, RH 43%
  Equilibrium Form: Monohydrate
[3]; water volume 40%, RH 66%
  Equilibrium Form: Monohydrate
[3]; water volume 60%, RH 80%
  Equilibrium Form: Monohydrate
[3]; water volume 80%, RH 91%
  Equilibrium Form: Monohydrate
[3]; water volume 90%, RH 95%
  Equilibrium Form: Monohydrate
[3]; water volume 100%, RH 100%
  Equilibrium Form: Monohydrate

## CS(=O)(=O)CCNCc1ccc(-c2ccc3ncnc(Nc4ccc(OCc5cccc(F)c5)c(Cl)c4)c3c2)o1.Cl.Cl [di-HCl salt, N-{3-Chloro-4-[(3-fluorobenzyl)oxy]phenyl}-6-[5-({[2-(methanesulphonyl)ethyl]amino}methyl)-2-furyl]-4-quinazolinamine di-HCl salt]
[4]
  Water sorption: sorbs very large amounts of water
